Source: paper PMC12635268, “Novel antimicrobial peptides and peptide-microbiome crosstalk in Appalachian salamander skin” (NPJ Biofilms and Microbiomes, 2025)
In brackets after ≈: the same amount, converted by molar mass.

What was measured:
Assay in all cases: microbe, parasite or virus in culture
[1] = system: A. baumannii ATCC 19606; details: A. baumannii 19606
Outline: (§1)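 Peptides tested 0.25–128 μg/mL (2-fold dilutions, TFA/BSA carrier) against 1 × 10⁵ CFU/mL inoculum in CAMHB, duplicates.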

[2] = system: E. faecium ATCC 49224; details: E. faecium 49224
Outline: as §1

[3] = system: K. pneumoniae ATCC 13883; details: K. pneumoniae 13883
Outline: as §1

[4] = system: E. faecium ATCC 19434; details: E. faecium 19434
Outline: as §1

[5] = system: P. aeruginosa ATCC 27853; details: P. aeruginosa 27853
Outline: as §1

[6] = system: K. pneumoniae ATCC 700603; details: K. pneumoniae 700603
Outline: as §1

[7] = system: S. aureus ATCC 25923; details: S. aureus 25923
Outline: as §1

[8] = system: P. aeruginosa MRSN 5519; details: P. aeruginosa 5519
Outline: as §1

[9] = system: E. coli ATCC 35218; details: E. coli 35218
Outline: as §1

[10] = system: S. aureus ATCC 43300; details: S. aureus 43300
Outline: as §1

[11] = system: P. aeruginosa PA01 (Si); assay type: cell-based; details: P. aeruginosa PA01 (Si), not typical ESKAPEE strain
Description: Supplement 41522_2025_837_MOESM13_ESM.xlsx, sheet "Table_S13_ESKAPEE-MIC" | column: Bacterial MIC (µg/mL)

[12] = system: P. aeruginosa PA01; assay type: cell-based
Outline: as §1

[13] = CAMHB, 1 × 10⁵ CFU/mL, 0.25 to 128 μg/mL, 37 °C 20 h, duplicate, read visually (CLSI)

SMILES: CC[C@H](C)[C@H](NC(=O)[C@H](CCCCN)NC(=O)[C@H](CCC(=O)O)NC(=O)[C@H](CCCCN)NC(=O)[C@H](CO)NC(=O)[C@H](CCCCN)NC(=O)[C@H](CCCNC(=N)N)NC(=O)[C@H](Cc1ccccc1)NC(=O)[C@H](Cc1ccccc1)NC(=O)[C@H](CC(=O)O)NC(=O)CNC(=O)[C@H](CC(C)C)NC(=O)[C@@H](N)CC(C)C)C(=O)NCC(=O)N[C@@H](CCCCN)C(=O)N[C@@H](CCC(=O)O)C(=O)N[C@@H](Cc1ccccc1)C(=O)N[C@@H](CCCCN)C(=O)N[C@@H](CCCNC(=N)N)C(=O)N[C@H](C(=O)N[C@H](C(=O)N[C@@H](CCC(N)=O)C(=O)N[C@@H](CCCNC(=N)N)C(=O)N[C@H](C(=O)N[C@@H](CCCCN)C(=O)N[C@@H](CC(=O)O)C(=O)N[C@@H](Cc1ccccc1)C(=O)N[C@@H](CC(C)C)C(=O)N[C@@H](CCCNC(=N)N)C(=O)N[C@@H](CC(N)=O)C(=O)N[C@@H](CC(C)C)C(=O)N[C@H](C(=O)N1CCC[C@H]1C(=O)N[C@@H](CCCNC(=N)N)C(=O)N[C@H](C(=O)N[C@@H](CCC(=O)O)C(=O)N[C@@H](CO)C(=O)O)[C@@H](C)O)C(C)C)[C@@H](C)CC)C(C)C)[C@@H](C)CC [LL-37, reference compound]
- MIC [1, 13]: 2 µg/mL (≈ 0.445 µM)
- Bacterial MIC ([1]; Week 1 (12/6/2023)): 2 µg/mL
- MIC [2, 13]: 32 µg/mL (≈ 7.12 µM)
- Bacterial MIC ([2]; Week 1 (12/6/2023)): 32 µg/mL
- Bacterial MIC ([2]; Week 2 (12/14/2023)): 64 µg/mL
- MIC [3, 13]: 4 µg/mL (≈ 0.89 µM)
- Bacterial MIC ([3]; Week 1 (12/6/2023)): 4 µg/mL
- Bacterial MIC ([3]; Week 2 (12/14/2023)): 8 µg/mL
- MIC [4, 13]: 32 µg/mL (≈ 7.12 µM)
- Bacterial MIC ([4]; Week 1 (12/6/2023)): 32 µg/mL
- Bacterial MIC ([4]; Week 2 (12/14/2023)): 64 µg/mL
- MIC [5, 13]: 8 µg/mL (≈ 1.78 µM)
- Bacterial MIC ([5]; Week 1 (12/6/2023)): 8 µg/mL
- Bacterial MIC ([5]; Week 2 (12/14/2023)): 8 µg/mL
- MIC [6, 13]: 32 µg/mL (≈ 7.12 µM)
- Bacterial MIC ([6]; Week 1 (12/6/2023)): 32 µg/mL
- MIC [7, 13]: >128 µg/mL
- Bacterial MIC ([7]; Week 1 (12/6/2023)): >128.000 µg/mL
- Bacterial MIC ([7]; Week 2 (12/14/2023)): >128.000 µg/mL
- MIC [8, 13]: 16 µg/mL (≈ 3.56 µM)
- Bacterial MIC ([8]; Week 1 (12/6/2023)): 16 µg/mL
- Bacterial MIC ([8]; Week 2 (12/14/2023)): 16 µg/mL
- MIC [9, 13]: 8 µg/mL (≈ 1.78 µM)
- Bacterial MIC ([9]; Week 2 (12/14/2023)): 8 µg/mL
- MIC [10, 13]: >128 µg/mL
- Bacterial MIC ([10]; Week 1 (12/6/2023)): >128.000 µg/mL
- Bacterial MIC ([10]; Week 2 (12/14/2023)): >128.000 µg/mL
- Bacterial MIC ([11]; Week 1 (12/6/2023)): 4 µg/mL
- Bacterial MIC ([11]; Week 2 (12/14/2023)): 4 to 8 µg/mL
- Bacterial MIC ([12]; P. aeruginosa 15692 (PAO1), Week 2 (12/14/2023)): 16 µg/mL
- MIC ([12]; P. aeruginosa PA01, CAMHB, 1 × 10⁵ CFU/mL, 0.25 to 128 μg/mL, 37 °C 20 h, duplicate, read visually (CLSI)): 4 µg/mL (≈ 0.89 µM)
